Experimental data published in patent publication US11007232B2, “Use of neural cells derived from human pluripotent stem cells for the treatment of neurodegenerative diseases” (priority 2013, dated 2021).

System: DA neuron precursor cells
Assay: Differentiation of DA neuron precursor cells into DA neurons with guggulsterone, FACS for TH
Assay type: cell-based, human
Conditions: guggulsterone 2.5 μM for two weeks; after 30 days of differentiation
Procedure: The DA neuron precursor cells were plated at 2000 cells/well of a 96-well plate and treated with guggulsterone (GS) at 2.5 μM for two weeks. After 30 days of differentiation, GS-treated neurons appeared mature with elaborate neurite extensions. At this stage, the derived cells expressed not only the major neuronal marker β-III-tubulin (TUJ1), but also the important DA neuron markers tyrosine hydroxylase (TH), the dopamine transporter (Dat), Foxa2, Nurr-1, and Girk2. […] The method specifically involved treating both hESC-H9-NSCs (Invitrogen) and hPSC-NSCs with Purmorphamine (2 μM) and FGF8 (100 ng/mL) in NB medium [NeuroBasal medium, 1× GlutaMAX, 1× N2/B27 Supplement (Invitrogen)] for 7 days. […] Two weeks after treatment with small molecules, all wells were visually observed and scored based on neurite density and dopamine release. For measuring neurite density, cells were fixed with 4% paraformaldehyde and phase contrast images were acquired using Cellavista Cell Imaging System (Roche Applied Science) from randomly selected fields. Neurite density was measured using the Cellavista density software image processing program. Each experimental condition was done in duplicate wells, and at least three independent experiments were conducted to acquire the final results.

`C/C=C1\C(=O)C[C@H]2[C@@H]3CCC4=CC(=O)CC[C@]4(C)[C@H]3CC[C@]12C` [guggulsterone] was tested, and the “cells gated TH positive (FACS analysis)” value was “more than 97%”.
